Where a name gives a salt, the structure may show the parent alone. Read-outs that look alike come from different tables or passages of the source.
How the values were obtained:
human B1R receptor = molecular target: T1, human B1R receptor (Homo sapiens, UniProt P46663); test: Functional study on the bradykinin receptor 1 (B1R), FLIPR Ca2+ assay, hB1R cells; format: cell-based; conditions: agonist Lys-Des-Arg9-bradykinin 0.5 nM, % inhibition compared with the maximum achievable inhibition; for inhibition at 10 µM: read-out: B1R Antagonism, human [10 μM] % Inhibition
T1 construct: host or cells: CHO K1 cells (Chinese hamster ovary), stably transfected
T1 sequence (P46663 1-353): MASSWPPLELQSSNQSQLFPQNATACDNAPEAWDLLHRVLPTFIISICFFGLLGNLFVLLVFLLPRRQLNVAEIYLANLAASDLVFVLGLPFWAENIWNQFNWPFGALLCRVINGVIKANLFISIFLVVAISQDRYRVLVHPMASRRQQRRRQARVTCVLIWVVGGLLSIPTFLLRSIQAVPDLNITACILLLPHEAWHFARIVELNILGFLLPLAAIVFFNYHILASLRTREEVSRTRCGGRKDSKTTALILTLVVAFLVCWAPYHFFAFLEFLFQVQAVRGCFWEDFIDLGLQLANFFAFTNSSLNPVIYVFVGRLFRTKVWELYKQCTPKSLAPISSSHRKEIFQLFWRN
Outline: (§1)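 Cells were dye-loaded 60 min at 37 °C, equilibrated 20 min at room temperature, then given 10 μM compound. Ten minutes later the species-matched agonist was added (0.5 nM Lys-Des-Arg9-bradykinin, human; 100 nM Des-Arg9-bradykinin, rat) and Ca2+ influx suppression expressed as % of maximum inhibition.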

B1R receptor of the rat = molecular target: T2, B1R receptor of the rat (Rattus norvegicus, UniProt P97583); test: Functional study on the bradykinin receptor 1 (B1R), FLIPR Ca2+ assay, rB1R cells; format: cell-based; conditions: agonist Des-Arg9-bradykinin 100 nM, % inhibition compared with the maximum achievable inhibition; for inhibition at 10 µM: read-out: B1R Antagonism, rat [10 μM] % Inhibition
T2 construct: host or cells: CHO K1 cells (Chinese hamster ovary), stably transfected
T2 sequence (P97583 1-337): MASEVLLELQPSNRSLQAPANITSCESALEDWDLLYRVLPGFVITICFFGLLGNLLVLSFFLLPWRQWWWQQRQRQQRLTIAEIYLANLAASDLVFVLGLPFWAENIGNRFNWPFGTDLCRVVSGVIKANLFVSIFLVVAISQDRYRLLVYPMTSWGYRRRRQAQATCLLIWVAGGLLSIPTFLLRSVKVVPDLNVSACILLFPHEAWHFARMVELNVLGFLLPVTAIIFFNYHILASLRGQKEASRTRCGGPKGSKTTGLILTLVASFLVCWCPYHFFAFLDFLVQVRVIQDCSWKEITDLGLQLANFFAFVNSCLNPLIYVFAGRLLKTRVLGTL
Outline: as §1

[1] = test substance 10 μM, hB1R CHO K1 cells
[2] = test substance 10 μM, rB1R CHO K1 cells

| inhibition at 10 µM (human B1R receptor; CHO-K1, test substance 10 μM) | inhibition at 10 µM (B1R receptor of the rat; CHO-K1, test substance 10 μM) | Compound | other results |
| --- | --- | --- | --- |
| 43.2% | 0% | O=C(COCC1CCCCN1S(=O)(=O)c1ccc(Cl)c(Cl)c1)N1CCN(c2ccccc2F)CC1 (stereo not shown) [Example 86, 2-[1-(3,4-dichloro-phenylsulfonyl)-piperidin-2-ylmethoxy]-1-[4-(2-fluoro-phenyl)-piperazin-1-yl]-ethanone] |  |
| 42.7% | 44.4% | Cc1cc(C)c(S(=O)(=O)N2CCCCC2COCC(=O)Nc2ccc(-n3ccnc3C)cc2)c(C)c1 (stereo not shown) [Example 87, N-[4-(2-methyl-imidazol-1-yl)-phenyl]-2-[1-(2,4,6-trimethyl-phenylsulfonyl)-piperidin-2-ylmethoxy]-acetamide] |  |
| 42.1% | 7.33% | CN(C)CCCN1CCN(C(=O)COCC2CCCN2S(=O)(=O)c2ccc(Cl)c(Cl)c2)CC1 (stereo not shown) [Example 88, 2-[1-(3,4-dichloro-phenylsulfonyl)-pyrrolidin-2-ylmethoxy]-1-[4-(3-dimethylamino-propyl)-piperazin-1-yl]-ethanone] |  |
| 41.3% | 0% | O=C(COCC1CCCN1S(=O)(=O)c1ccc(Cl)c(Cl)c1)N1CCN(c2ccccc2)CC1 (stereo not shown) [Example 89, 2-[1-(3,4-dichloro-phenylsulfonyl)-pyrrolidin-2-ylmethoxy]-1-(4-phenyl-piperazin-1-yl)-ethanone] |  |
| 50% | 99.5% | COc1ccc(S(=O)(=O)N2CCCCC2CCOCC(=O)N2CCC(CCN3CCCCC3)CC2)cc1 (stereo not shown) [Example 90, 2-(2-(1-(4-methoxyphenylsulfonyl)piperidin-2-yl)ethoxy)-1-(4-(2-(piperidin-1-yl)-ethyl)piperidin-1-yl)ethanone] |  |
| 103% | 101% | COc1cc(C)c(S(=O)(=O)N2CCCCC2COCC(=O)N2CCN(Cc3cccc(C#N)c3)CC2)c(C)c1 (stereo not shown) [Example 92, 3-((4-(2-((1-(4-methoxy-2,6-dimethylphenylsulfonyl)piperidin-2-yl)methoxy)acetyl)-piperazin-1-yl)methyl)benzonitrile hydrochloride] |  |
| 106% | 99.1% | COc1cc(C)c(S(=O)(=O)N2CCCC2COCC(=O)N2CCN(Cc3cccc(C#N)c3)CC2)c(C)c1 (stereo not shown) [Example 93, 3-((4-(2-((1-(4-methoxy-2,6-dimethylphenylsulfonyl)pyrrolidin-2-yl)methoxy)acetyl)-piperazin-1-yl)methyl)benzonitrile hydrochloride] |  |
| 105% | 103% | COc1cc(C)c(S(=O)(=O)N2CCCCC2COCC(=O)N2CCC(CCN3CCCC3)CC2)c(C)c1 (stereo not shown) [Example 94, 2-((1-(4-methoxy-2,6-dimethylphenylsulfonyl)piperidin-2-yl)methoxy)-1-(4-(2-(pyrrolidin-1-yl)ethyl)piperidin-1-yl)ethanone hydrochloride] |  |
| 107% | 101% | COc1cc(C)c(S(=O)(=O)N2CCCC2COCC(=O)N2CCC(CCN3CCCC3)CC2)c(C)c1 (stereo not shown) [Example 95, 2-((1-(4-methoxy-2,6-dimethylphenylsulfonyl)pyrrolidin-2-yl)methoxy)-1-(4-(2-(pyrrolidin-1-yl)ethyl)piperidin-1-yl)ethanone] |  |
|  |  | COc1cc(C)c(S(=O)(=O)N2CCCCC2COCC(=O)N2CCc3cnccc3C2)c(C)c1 (stereo not shown) [Example 96, 1-(3,4-dihydro-2,6-naphthyridin-2(1H)-yl)-2-((1-(4-methoxy-2,6-dimethylphenyl-sulfonyl)piperidin-2-yl)methoxy)ethanone hydrochloride] | inhibition at 10 µM (human B1R receptor; [1]): 105%; inhibition at 10 µM (B1R receptor of the rat; [2]): 91.3% |
|  |  | COc1cc(C)c(S(=O)(=O)N2CCCCC2COCC(=O)N2CCC(N3CCN4CCCCC4C3)CC2)c(C)c1.Cl.Cl (stereo not shown) [Example 99] | B1R Antagonism, human [10 μM] % Inhibition (human B1R receptor; [1]): 103.76%; B1R Antagonism, rat [10 μM] % Inhibition (B1R receptor of the rat; [2]): 100.08% |
| 104% | 102% | COc1cc(C)c(S(=O)(=O)N2CCCCC2COCC(=O)N2CCC(N3CCc4cnccc4C3)CC2)c(C)c1 (stereo not shown) [Example 100, 1-(4-(3,4-dihydro-2,6-naphthyridin-2(1H)-yl)piperidin-1-yl)-2-((1-(4-methoxy-2,6-dimethylphenylsulfonyl)piperidin-2-yl)methoxy)ethanone] |  |
| 100% | 100% | COc1cc(C)c(S(=O)(=O)N2CCCCC2COCC(=O)N2CCN(C(=O)OC(C)(C)C)CC2)c(C)c1 (stereo not shown) [Example 101, tert-butyl 4-(2-((1-(4-methoxy-2,6-dimethylphenylsulfonyl)piperidin-2-yl)methoxy)acetyl)piperazin-1-carboxylate] |  |
| 104% | 100% | COc1cc(C)c(S(=O)(=O)N2CCCCC2COCC(=O)N2CCNCC2)c(C)c1 (stereo not shown) [Example 102, 2-((1-(4-methoxy-2,6-dimethylphenylsulfonyl)piperidin-2-yl)methoxy)-1-(piperazin-1-yl)ethanone hydrochloride] |  |
| 105% | 100% | COc1cc(C)c(S(=O)(=O)N2CCCCC2COCC(=O)N2CCC(c3nc(-c4ccncc4)no3)CC2)c(C)c1 (stereo not shown) [Example 103, 2-((1-(4-methoxy-2,6-dimethylphenylsulfonyl)piperidin-2-yl)methoxy)-1-(4-(3-(pyridin-4-yl)-1,2,4-oxadiazol-5-yl)piperidin-1-yl)ethanone] |  |
| 105% | 101% | COc1cc(C)c(S(=O)(=O)N2CCCCC2COCC(=O)N2CCN(C3CCOCC3)CC2)c(C)c1 (stereo not shown) [Example 104, 2-((1-(4-methoxy-2,6-dimethylphenylsulfonyl)piperidin-2-yl)methoxy)-1-(4-(tetrahydro-2H-pyran-4-yl)piperazin-1-yl)ethanone] |  |
| 106% | 100% | COc1cc(C)c(S(=O)(=O)N2CCCCC2COCC(=O)N2CCN(C3CCC(C)CC3)CC2)c(C)c1 (stereo not shown) [Example 105, 2-((1-(4-methoxy-2,6-dimethylphenylsulfonyl)piperidin-2-yl)methoxy)-1-(4-(4-methylcyclohexyl)piperazin-1-yl)ethanone] |  |
| 103% | 103% | COc1cc(C)c(S(=O)(=O)N2CCCCC2COCC(=O)N2CCN(CC3CCN(C)CC3)CC2)c(C)c1 (stereo not shown) [Example 106, 2-((1-(4-methoxy-2,6-dimethylphenylsulfonyl)piperidin-2-yl)methoxy)-1-(4-((1-methylpiperidin-4-yl)methyl)piperazin-1-yl)ethanone dihydrochloride] |  |
| 102% | 102% | Cc1cc(C)c(S(=O)(=O)N2CCCCC2COCC(=O)N2CCN(C3CCN(C)CC3)CC2)c(C)c1 (stereo not shown) [Example 107, 2-((1-(mesitylsulfonyl)piperidin-2-yl)methoxy)-1-(4-(1-methylpiperidin-4-yl)piperazin-1-yl)ethanone] |  |
| 102% | 102% | CN1CCC(N2CCN(C(=O)COCC3CCCCN3S(=O)(=O)c3c(Cl)cc(C(F)(F)F)cc3Cl)CC2)CC1 (stereo not shown) [Example 108, 2-((1-(2,6-dichloro-4-(trifluoromethyl)phenylsulfonyl)piperidin-2-yl)methoxy)-1-(4-(1-methylpiperidin-4-yl)piperazin-1-yl)ethanone] |  |
| 103% | 102% | Cc1cccc(Cl)c1S(=O)(=O)N1CCCCC1COCC(=O)N1CCN(C2CCN(C)CC2)CC1 (stereo not shown) [Example 109, 2-((1-(2-chloro-6-methylphenylsulfonyl)piperidin-2-yl)methoxy)-1-(4-(1-methylpiperidin-4-yl)piperazin-1-yl)ethanone] |  |
| 102% | 102% | CN1CCC(N2CCN(C(=O)COCC3CCCCN3S(=O)(=O)c3cccc4ccccc34)CC2)CC1 (stereo not shown) [Example 110, 1-(4-(1-methylpiperidin-4-yl)piperazin-1-yl)-2-((1-(naphthalen-1-ylsulfonyl)piperidin-2-yl)methoxy)ethanone] |  |
| 91.9% | 101% | CN1CCC(N2CCN(C(=O)COCC3CCCCN3S(=O)(=O)c3ccc4ccccc4c3)CC2)CC1 (stereo not shown) [Example 111, 1-(4-(1-methylpiperidin-4-yl)piperazin-1-yl)-2-((1-(naphthalen-2-ylsulfonyl)piperidin-2-yl)methoxy)ethanone] |  |

— patent US8435978B2, “Substituted sulfonamide compounds” (Gruenenthal GmbH, priority 2006, dated 2013)
